Measured values as given in patent publication US20260262643A1, “HERBICIDAL BENZOXAZINES” (FMC CORPORATION, priority 2022, published 2026).

How the values were obtained:
barnyardgrass [1] = assay: Test C preemergence; assay type: in vivo, Echinochloa crusgalli; conditions: 0 to 100 scale (0 no effect, 100 complete control)
Procedure, shortened: (§1)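 Seeds in loam–sand blend received preemergence directed soil spray of test chemicals in non-phytotoxic solvent with surfactant; postemergence treatment was applied at one- to two-leaf stage (2–10 cm). After 10 days in greenhouse, injury rated visually versus untreated controls, 0 (no effect) to 100 (complete control).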

blackgrass [2] = assay: Test C preemergence; assay type: in vivo, Alopecurus myosuroides; conditions: 0 to 100 scale (0 no effect, 100 complete control)
Procedure, shortened: as §1

corn [3] = assay: Test C preemergence; assay type: in vivo, Zea mays; conditions: 0 to 100 scale (0 no effect, 100 complete control)
Procedure, shortened: as §1

green foxtail [4] = assay: Test C preemergence; assay type: in vivo, Setaria viridis; conditions: 0 to 100 scale (0 no effect, 100 complete control)
Procedure, shortened: as §1

kochia [5] = assay: Test C preemergence; assay type: in vivo, Bassia scoparia; conditions: 0 to 100 scale (0 no effect, 100 complete control)
Procedure, shortened: as §1

oat, wild [6] = assay: Test C preemergence; assay type: in vivo, Avena fatua; conditions: 0 to 100 scale (0 no effect, 100 complete control)
Procedure, shortened: as §1

pigweed, palmer [7] = assay: Test C preemergence; assay type: in vivo, Amaranthus palmeri; conditions: 0 to 100 scale (0 no effect, 100 complete control)
Procedure, shortened: as §1

ragweed [8] = assay: Test C preemergence; assay type: in vivo, Ambrosia artemisiifolia; conditions: 0 to 100 scale (0 no effect, 100 complete control)
Procedure, shortened: as §1

ryegrass, Italian [9] = assay: Test C preemergence; assay type: in vivo, Lolium multiflorum; conditions: 0 to 100 scale (0 no effect, 100 complete control)
Procedure, shortened: as §1

soybean [10] = assay: Test C preemergence; assay type: in vivo, Glycine max; conditions: 0 to 100 scale (0 no effect, 100 complete control)
Procedure, shortened: as §1

wheat [11] = assay: Test C preemergence; assay type: in vivo, Triticum aestivum; conditions: 0 to 100 scale (0 no effect, 100 complete control)
Procedure, shortened: as §1

barnyardgrass [12] = assay: Test C postemergence; assay type: in vivo, Echinochloa crusgalli; conditions: 10 days
Procedure, shortened: as §1

blackgrass [13] = assay: Test C postemergence; assay type: in vivo, Alopecurus myosuroides; conditions: 10 days
Procedure, shortened: as §1

corn [14] = assay: Test C postemergence; assay type: in vivo, Zea mays; conditions: 10 days
Procedure, shortened: as §1

green foxtail [15] = assay: Test C postemergence; assay type: in vivo, Setaria viridis; conditions: 10 days
Procedure, shortened: as §1

kochia [16] = assay: Test C postemergence; assay type: in vivo, Bassia scoparia; conditions: 10 days
Procedure, shortened: as §1

oat, wild [17] = assay: Test C postemergence; assay type: in vivo, Avena fatua; conditions: 10 days
Procedure, shortened: as §1

pigweed, palmer [18] = assay: Test C postemergence; assay type: in vivo, Amaranthus palmeri; conditions: 10 days
Procedure, shortened: as §1

ragweed [19] = assay: Test C postemergence; assay type: in vivo, Ambrosia artemisiifolia; conditions: 10 days
Procedure, shortened: as §1

ryegrass, Italian [20] = assay: Test C postemergence; assay type: in vivo, Lolium multiflorum; conditions: 10 days
Procedure, shortened: as §1

soybean [21] = assay: Test C postemergence; assay type: in vivo, Glycine max; conditions: 10 days
Procedure, shortened: as §1

wheat [22] = assay: Test C postemergence; assay type: in vivo, Triticum aestivum; conditions: 10 days
Procedure, shortened: as §1

galium = assay: Test C postemergence; assay type: in vivo, Galium aparine; conditions: 10 days
Procedure, shortened: as §1

horseweed = assay: Test C postemergence; assay type: in vivo, Erigeron canadensis; conditions: 10 days
Procedure, shortened: as §1

barnyardgrass [23] = assay: Test D flooded paddy test; assay type: in vivo, Echinochloa crus-galli; conditions: 250 g ai/ha, applied to paddy water, visual rating after 13 to 14 days, scale 0 to 100 (0 no effect, 100 complete control)
Procedure, shortened: (§2)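 Rating scale 0–100 (0 no effect, 100 complete control), visual, versus controls. Readout at 13–14 days after in-water application to 2-leaf plants in pots flooded 3 cm deep.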

ducksalad = assay: Test D flooded paddy test; assay type: in vivo, Heteranthera limosa; conditions: 250 g ai/ha, applied to paddy water, visual rating after 13 to 14 days, scale 0 to 100 (0 no effect, 100 complete control)
Procedure, shortened: as §2

rice = assay: Test D flooded paddy test; assay type: in vivo, Oryza sativa; conditions: 250 g ai/ha, applied to paddy water, visual rating after 13 to 14 days, scale 0 to 100 (0 no effect, 100 complete control)
Procedure, shortened: as §2

sedge, umbrella = assay: Test D flooded paddy test; assay type: in vivo, Cyperus difformis; conditions: 250 g ai/ha, applied to paddy water, visual rating after 13 to 14 days, scale 0 to 100 (0 no effect, 100 complete control)
Procedure, shortened: as §2

[24] = Preemergence, 500 g ai/ha, visual rating after 10 days
[25] = Test C, preemergence, 125 g ai/ha
[26] = 125 g ai/ha, postemergence, 0 to 100 scale, 0 no effect, 100 complete control
[27] = Postemergence, 500 g ai/ha, visual 0 to 100 scale (0 no effect, 100 complete control)

## CC(C)c1ncn(-c2cc3c(c(C(=O)N4C[C@H](C)Oc5c(Cl)cccc54)c2)CCC3)n1 [Compound 174]
Barnyardgrass [1]; [24]
  Plant response rating, Barnyardgrass: 100
Barnyardgrass [1]; [25]
  Barnyardgrass plant response rating: 80
Blackgrass [2]; [24]
  Plant response rating, Blackgrass: 80
Blackgrass [2]; [25]
  Blackgrass plant response rating: 70
Corn [3]; [24]
  Plant response rating, Corn: 50
Corn [3]; [25]
  Corn plant response rating: 10
Green foxtail [4]; [24]
  Plant response rating, Foxtail, Green: 100
Green foxtail [4]; [25]
  Foxtail, Green plant response rating: 100
Kochia [5]; [24]
  Plant response rating, Kochia: 90
Kochia [5]; [25]
  Kochia plant response rating: 70
oat, wild [6]; [24]
  Plant response rating, Oat, Wild: 80
oat, wild [6]; [25]
  Oat, Wild plant response rating: 20
pigweed, palmer [7]; [24]
  Plant response rating, Pigweed, Palmer: 100
pigweed, palmer [7]; [25]
  Pigweed, Palmer plant response rating: 100
Ragweed [8]; [24]
  Plant response rating, Ragweed: 10
Ragweed [8]; [25]
  Ragweed plant response rating: 0
ryegrass, Italian [9]; [24]
  Plant response rating, Ryegrass, Italian: 90
ryegrass, Italian [9]; [25]
  Ryegrass, Italian plant response rating: 80
Soybean [10]; [24]
  Plant response rating, Soybean: 100
Soybean [10]; [25]
  Soybean plant response rating: 70
Wheat [11]; [24]
  Plant response rating, Wheat: 10
Wheat [11]; [25]
  Wheat plant response rating: 0
Barnyardgrass [12]; [26]
  Plant response rating, Barnyardgrass: 50
Barnyardgrass [12]; [27]
  Plant response rating, Barnyardgrass: 60
Blackgrass [13]; [26]
  Plant response rating, Blackgrass: 60
Blackgrass [13]; [27]
  Plant response rating, Blackgrass: 90
Corn [14]; [26]
  Plant response rating, Corn: 70
Corn [14]; [27]
  Plant response rating, Corn: 80
Green foxtail [15]; [26]
  Plant response rating, Foxtail, Green: 70
Green foxtail [15]; [27]
  Plant response rating, Foxtail, Green: 90
Kochia [16]; [26]
  Plant response rating, Kochia: 90
Kochia [16]; [27]
  Plant response rating, Kochia: 100
oat, wild [17]; [26]
  Plant response rating, Oat, Wild: 50
oat, wild [17]; [27]
  Plant response rating, Oat, Wild: 70
pigweed, palmer [18]; [26]
  Plant response rating, Pigweed, Palmer: 90
pigweed, palmer [18]; [27]
  Plant response rating, Pigweed, Palmer: 100
Ragweed [19]; [26]
  Plant response rating, Ragweed: 60
Ragweed [19]; [27]
  Plant response rating, Ragweed: 70
ryegrass, Italian [20]; [26]
  Plant response rating, Ryegrass, Italian: 50
ryegrass, Italian [20]; [27]
  Plant response rating, Ryegrass, Italian: 70
Soybean [21]; [26]
  Plant response rating, Soybean: 100
Soybean [21]; [27]
  Plant response rating, Soybean: 100
Wheat [22]; [26]
  Plant response rating, Wheat: 20
Wheat [22]; [27]
  Plant response rating, Wheat: 40
galium; [26]
  Plant response rating, Galium: 100
galium; [27]
  Plant response rating, Galium: 100
horseweed; [26]
  Plant response rating, Horseweed: 0
horseweed; [27]
  Plant response rating, Horseweed: 30
Barnyardgrass [23]
  Plant response rating, Barnyardgrass (Flood): 0
ducksalad
  Plant response rating, Ducksalad (Flood): 0
rice
  Plant response rating, Rice (Flood): 0
sedge, umbrella
  Plant response rating, Sedge, Umbrella (Flood): 0
